Laboratory results reported in PubChem BioAssay (NCI).
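Compound exposure: 48 hours, 5 concentrations, 96-well plates. GI50 is the concentration that inhibits growth by half. TGI: total growth inhibition.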

Key:
Experiment in all cases: DTP human tumour cell line panel, 48 h
NCI-H23 lung = test system: NCI-H23 lung
SW-620 colon = test system: SW-620 colon
SK-OV-3 ovarian = test system: SK-OV-3 ovarian
TK-10 renal = test system: TK-10 renal
BT-549 breast = test system: BT-549 breast
OVCAR-8 ovarian = test system: OVCAR-8 ovarian
COLO 205 colon = test system: COLO 205 colon
ACHN renal = test system: ACHN renal
HOP-92 NSCLC = test system: HOP-92 NSCLC
RPMI-8226 leukemia = test system: RPMI-8226 leukemia

**Q.** For C=C(C)C1CC(=O)C(C)=C(O)C1 (stereo not given), which TGI (NCI-H23 lung) is on record?
**A.** > 100 µM

**Q.** And the TGI (SW-620 colon)?
**A.** > 100 µM

**Q.** What about the TGI (SK-OV-3 ovarian) of the same molecule?
**A.** > 100 µM

**Q.** What about the TGI (TK-10 renal) of the same molecule?
**A.** > 100 µM

**Q.** What about the TGI (BT-549 breast) of the same molecule?
**A.** > 100 µM

**Q.** And the TGI (OVCAR-8 ovarian)?
**A.** > 100 µM

**Q.** And the TGI (COLO 205 colon)?
**A.** > 100 µM

**Q.** And the TGI (ACHN renal)?
**A.** > 100 µM

**Q.** For N#Cc1c(-c2ccc([N+](=O)[O-])cc2)c(C#N)c(=O)n(NS(=O)(=O)c2ccccc2)c1S, which TGI (HOP-92 NSCLC) is on record?
**A.** > 100 µM

**Q.** What about the TGI (SW-620 colon) of the same molecule?
**A.** 45.7 µM

**Q.** What about the TGI (SK-OV-3 ovarian) of the same molecule?
**A.** > 100 µM

**Q.** What about the TGI (TK-10 renal) of the same molecule?
**A.** > 100 µM

**Q.** And the TGI (BT-549 breast)?
**A.** 39.2 µM

**Q.** And the TGI (RPMI-8226 leukemia)?
**A.** 44.6 µM

**Q.** What about the TGI (OVCAR-8 ovarian) of the same molecule?
**A.** > 100 µM

**Q.** And the TGI (COLO 205 colon)?
**A.** > 100 µM

**Q.** What about the TGI (ACHN renal) of the same molecule?
**A.** > 100 µM

**Q.** For O=C(O)c1c(CC(Cc2ccc3c(c2)CCC3)C(=O)O)ccc2c1CCC2 (stereo not given), which TGI (HOP-92 NSCLC) is on record?
**A.** > 100 µM

**Q.** And the TGI (NCI-H23 lung)?
**A.** > 100 µM

**Q.** What about the TGI (SW-620 colon) of the same molecule?
**A.** > 100 µM

**Q.** What about the TGI (TK-10 renal) of the same molecule?
**A.** > 100 µM

**Q.** What about the TGI (BT-549 breast) of the same molecule?
**A.** > 100 µM

**Q.** And the TGI (RPMI-8226 leukemia)?
**A.** > 100 µM

**Q.** And the TGI (OVCAR-8 ovarian)?
**A.** > 100 µM

**Q.** What about the TGI (COLO 205 colon) of the same molecule?
**A.** > 100 µM

**Q.** And the TGI (ACHN renal)?
**A.** > 100 µM

**Q.** Which results are given for Cn1/c(=N\N=C2\C=C3CCCCC3(C)CC2)sc2ccccc21 (stereo not given)?
**A.** TGI (HOP-92 NSCLC): > 100 µM; TGI (NCI-H23 lung): > 100 µM; TGI (SW-620 colon): > 100 µM; TGI (SK-OV-3 ovarian): > 100 µM; TGI (TK-10 renal): > 100 µM; TGI (BT-549 breast): > 100 µM; TGI (OVCAR-8 ovarian): > 100 µM; TGI (COLO 205 colon): > 100 µM; TGI (ACHN renal): > 100 µM

**Q.** Which TGI (NCI-H23 lung) does the source give for CN(CCCCCl)P(=O)(OCc1ccc([N+](=O)[O-])o1)OCC1OC(n2ccc(N)nc2=O)C(O)C1O (stereo not given) here?
**A.** 33.1 µM

**Q.** What about the TGI (SW-620 colon) of the same molecule?
**A.** 69.6 µM

**Q.** What about the TGI (SK-OV-3 ovarian) of the same molecule?
**A.** 38.3 µM

**Q.** What about the TGI (TK-10 renal) of the same molecule?
**A.** > 100 µM

**Q.** What about the TGI (RPMI-8226 leukemia) of the same molecule?
**A.** 6.07 µM

**Q.** And the TGI (OVCAR-8 ovarian)?
**A.** > 100 µM

**Q.** What about the TGI (COLO 205 colon) of the same molecule?
**A.** 2.69 µM

**Q.** What about the TGI (ACHN renal) of the same molecule?
**A.** > 100 µM

**Q.** COC(=O)C1=C(CCCCO[Si](C)(C)C(C)(C)C)NC(=O)N2[C@H](CCOCc3ccccc3)CC[C@@H]12 was tested. Which TGI (HOP-92 NSCLC) did it give?
**A.** > 100 µM

**Q.** What about the TGI (NCI-H23 lung) of the same molecule?
**A.** > 100 µM

**Q.** And the TGI (SK-OV-3 ovarian)?
**A.** > 100 µM

**Q.** And the TGI (TK-10 renal)?
**A.** > 100 µM

**Q.** And the TGI (BT-549 breast)?
**A.** > 100 µM

**Q.** And the TGI (RPMI-8226 leukemia)?
**A.** > 100 µM

**Q.** And the TGI (COLO 205 colon)?
**A.** > 100 µM

**Q.** And the TGI (ACHN renal)?
**A.** > 100 µM

**Q.** O=C1c2cc3c(cc2-c2c1c1cc(F)c(F)cc1c(=O)n2CCCn1ccnc1)OCO3 was tested. Which GI50 (NCI-H23 lung) did it give?
**A.** 0.0204 µM

**Q.** And the TGI (NCI-H23 lung)?
**A.** 0.29 µM

**Q.** And the GI50 (SW-620 colon)?
**A.** < 0.01 µM

**Q.** And the TGI (SW-620 colon)?
**A.** > 100 µM

**Q.** And the GI50 (TK-10 renal)?
**A.** 0.25 µM

**Q.** And the TGI (TK-10 renal)?
**A.** > 100 µM

**Q.** And the GI50 (BT-549 breast)?
**A.** 0.0502 µM

**Q.** And the TGI (BT-549 breast)?
**A.** 49.5 µM

**Q.** And the GI50 (RPMI-8226 leukemia)?
**A.** 0.0253 µM

**Q.** And the TGI (RPMI-8226 leukemia)?
**A.** 0.673 µM

**Q.** And the GI50 (OVCAR-8 ovarian)?
**A.** 0.022 µM

**Q.** And the TGI (OVCAR-8 ovarian)?
**A.** > 100 µM

**Q.** What about the GI50 (COLO 205 colon) of the same molecule?
**A.** 0.0293 µM

**Q.** And the TGI (COLO 205 colon)?
**A.** 1.62 µM

**Q.** What about the GI50 (ACHN renal) of the same molecule?
**A.** < 0.01 µM

**Q.** And the TGI (ACHN renal)?
**A.** 0.134 µM

**Q.** What does the source list for Nc1c(C(=O)c2ccc(Cl)c(Cl)c2)[nH]c(NCc2ccccc2)c1C(=S)Nc1ccccc1?
**A.** TGI (NCI-H23 lung): 41.6 µM; TGI (SW-620 colon): 10.1 µM; TGI (SK-OV-3 ovarian): 32.2 µM; TGI (TK-10 renal): 33.4 µM; TGI (BT-549 breast): 30.5 µM; TGI (RPMI-8226 leukemia): 6.03 µM; TGI (OVCAR-8 ovarian): 30.2 µM; TGI (COLO 205 colon): 3.79 µM; TGI (ACHN renal): 28.1 µM

**Q.** How did the TGI (HOP-92 NSCLC) turn out when CCc1nc(N)c2nc(-c3cccs3)oc2n1 was run?
**A.** > 100 µM

**Q.** And the TGI (NCI-H23 lung)?
**A.** > 100 µM

**Q.** What about the TGI (SW-620 colon) of the same molecule?
**A.** > 100 µM

**Q.** What about the TGI (TK-10 renal) of the same molecule?
**A.** > 100 µM

**Q.** What about the TGI (BT-549 breast) of the same molecule?
**A.** > 100 µM

**Q.** And the TGI (RPMI-8226 leukemia)?
**A.** > 100 µM

**Q.** What about the TGI (OVCAR-8 ovarian) of the same molecule?
**A.** > 100 µM

**Q.** What about the TGI (COLO 205 colon) of the same molecule?
**A.** > 100 µM

**Q.** What about the TGI (ACHN renal) of the same molecule?
**A.** > 100 µM

**Q.** Which TGI (SW-620 colon) does the source give for C[s+]1c2ccccc2c2ccccc21 here?
**A.** > 100 µM

**Q.** And the TGI (TK-10 renal)?
**A.** > 100 µM

**Q.** And the TGI (RPMI-8226 leukemia)?
**A.** > 100 µM

**Q.** What about the TGI (OVCAR-8 ovarian) of the same molecule?
**A.** > 100 µM

**Q.** And the TGI (COLO 205 colon)?
**A.** > 100 µM

**Q.** And the TGI (ACHN renal)?
**A.** > 100 µM

**Q.** For N#Cc1ccccc1NC(=O)C(=O)C(C(=O)c1ccccc1F)C1OC(=O)c2ccccc21 (stereo not given), which TGI (HOP-92 NSCLC) is on record?
**A.** > 100 µM

**Q.** And the TGI (NCI-H23 lung)?
**A.** > 100 µM

**Q.** What about the TGI (SW-620 colon) of the same molecule?
**A.** > 100 µM

**Q.** What about the TGI (SK-OV-3 ovarian) of the same molecule?
**A.** > 100 µM

**Q.** And the TGI (TK-10 renal)?
**A.** > 100 µM

**Q.** What about the TGI (RPMI-8226 leukemia) of the same molecule?
**A.** 76.7 µM

**Q.** What about the TGI (OVCAR-8 ovarian) of the same molecule?
**A.** > 100 µM

**Q.** What about the TGI (COLO 205 colon) of the same molecule?
**A.** > 100 µM

**Q.** And the TGI (ACHN renal)?
**A.** > 100 µM
